These results are taken from ChEMBL document CHEMBL1155519, “Discovery of N-phenyl-4-(thiazol-5-yl)pyrimidin-2-amine aurora kinase inhibitors” (J Med Chem, 2010).

Experiment [1] relates to A2780. The experiment can be described thus: Cytotoxicity against human A2780 cells after 96 hrs by MTT assay. The class given is functional, cell-based. The note with it: A2780, 96 h.
Experiment [2] has as its system MCF7. The experiment can be described thus: Induction of p53 protein expression in human MCF7 cells at 0.07 to 10 uM after 7 hrs by fluorescent microscopy. The class given is functional, cell-based.
For experiment [3], the target named is Cyclin-dependent kinase 1 (Homo sapiens, UniProt P06493). In words: Inhibition of CDK1.
Sequence of Cyclin-dependent kinase 1 (P06493 whole entry): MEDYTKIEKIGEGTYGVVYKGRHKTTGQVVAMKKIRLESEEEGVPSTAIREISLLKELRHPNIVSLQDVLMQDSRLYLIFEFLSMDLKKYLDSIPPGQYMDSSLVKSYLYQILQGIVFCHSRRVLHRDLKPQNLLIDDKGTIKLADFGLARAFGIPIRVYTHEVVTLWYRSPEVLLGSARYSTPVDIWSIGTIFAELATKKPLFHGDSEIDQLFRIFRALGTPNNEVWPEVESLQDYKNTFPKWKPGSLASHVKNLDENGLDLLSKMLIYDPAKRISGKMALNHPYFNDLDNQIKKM
Experiment [4] deals with Cyclin-dependent kinase 9 (Homo sapiens, UniProt P50750). In words: Inhibition of CDK9.
Sequence of Cyclin-dependent kinase 9 (P50750 whole entry): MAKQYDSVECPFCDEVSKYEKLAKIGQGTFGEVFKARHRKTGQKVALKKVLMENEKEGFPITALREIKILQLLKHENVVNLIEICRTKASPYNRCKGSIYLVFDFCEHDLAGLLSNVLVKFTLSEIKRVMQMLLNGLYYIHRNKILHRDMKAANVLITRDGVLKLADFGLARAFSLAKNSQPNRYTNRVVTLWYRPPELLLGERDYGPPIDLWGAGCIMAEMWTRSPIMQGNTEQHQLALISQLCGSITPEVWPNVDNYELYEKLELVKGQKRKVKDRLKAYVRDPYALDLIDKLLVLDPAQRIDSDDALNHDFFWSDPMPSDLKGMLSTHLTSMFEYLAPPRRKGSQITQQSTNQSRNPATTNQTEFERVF
Experiment [5] concerns the target T1, Aurora kinase A (Homo sapiens, UniProt O14965).
T1 sequence (O14965 whole entry): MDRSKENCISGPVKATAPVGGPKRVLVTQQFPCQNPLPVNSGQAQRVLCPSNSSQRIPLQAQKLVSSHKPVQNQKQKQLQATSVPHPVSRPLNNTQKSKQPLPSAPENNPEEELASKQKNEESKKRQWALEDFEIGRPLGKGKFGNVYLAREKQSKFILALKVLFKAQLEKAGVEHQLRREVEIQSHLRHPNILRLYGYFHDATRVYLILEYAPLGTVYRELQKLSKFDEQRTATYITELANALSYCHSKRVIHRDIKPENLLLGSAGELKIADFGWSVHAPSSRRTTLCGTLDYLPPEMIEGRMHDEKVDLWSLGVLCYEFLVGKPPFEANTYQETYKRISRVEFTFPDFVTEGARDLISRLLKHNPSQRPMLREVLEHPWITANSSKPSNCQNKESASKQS
The experiment can be described thus: Inhibition of human recombinant Aurora A after 30 mins.

Experiment [6] addresses Cyclin-dependent kinase 4 (Homo sapiens, UniProt P11802). The experiment can be described thus: Inhibition of CDK4.
Experiment [7] deals with U2OS. In words: Inhibition of Aurora kinase in nocodazole-synchronized human U2OS cells assessed as reduction of histone H3 serine-10 phosphorylation at 0.07 to 10 uM after 2 hrs immunofluorescence microscopy. The class given is cell-based.
For experiment [8], the target named is Cyclin-dependent kinase 2 (Homo sapiens, UniProt P24941).
For experiment [9], the target named is Cyclin-dependent kinase 7 (Homo sapiens, UniProt P50613). In words: Inhibition of CDK7.
Sequence of Cyclin-dependent kinase 7 (P50613 whole entry): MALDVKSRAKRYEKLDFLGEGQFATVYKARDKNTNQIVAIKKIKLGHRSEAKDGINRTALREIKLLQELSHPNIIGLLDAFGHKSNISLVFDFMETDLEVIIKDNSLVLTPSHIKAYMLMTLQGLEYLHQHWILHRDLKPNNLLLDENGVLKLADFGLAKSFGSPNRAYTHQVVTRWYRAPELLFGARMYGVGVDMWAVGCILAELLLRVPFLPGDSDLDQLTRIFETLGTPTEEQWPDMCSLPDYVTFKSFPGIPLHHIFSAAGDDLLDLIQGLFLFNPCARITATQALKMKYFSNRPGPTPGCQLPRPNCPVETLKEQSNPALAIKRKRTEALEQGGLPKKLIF
Experiment [10] concerns MIA PaCa-2. The experiment can be described thus: Cytotoxicity against human MIAPaCa2 cells after 96 hrs by MTT assay. The class given is functional, cell-based. The note with it: MIA PaCa-2, 96 h.
Experiment [11] has as its system U2OS. In words: Inhibition of Aurora kinase in asynchronous human U2OS cells assessed as reduction of histone H3 serine-10 phosphorylation at 150 nM after 7 hrs immunofluorescence microscopy. The class given is cell-based.
Experiment [12] is described as follows: Inhibition of Aurora kinase in human A549 cells assessed as concentration required for half-maximal inhibition of histone H3 serine-10 phosphorylation after 7 hrs immunofluorescence microscopy. The class given is cell-based. The note with it: A549, 7 h.
Experiment [13] has as its target Aurora kinase B (Homo sapiens, UniProt Q96GD4). In words: Inhibition of human recombinant Aurora B after 60 mins.

pIC50, pKi: −log10 of the molar value. Activity calls are given as the source filed them. The calls are words filed in the database; no cut-off is given here.

Sequence of Aurora kinase B (Q96GD4 whole entry): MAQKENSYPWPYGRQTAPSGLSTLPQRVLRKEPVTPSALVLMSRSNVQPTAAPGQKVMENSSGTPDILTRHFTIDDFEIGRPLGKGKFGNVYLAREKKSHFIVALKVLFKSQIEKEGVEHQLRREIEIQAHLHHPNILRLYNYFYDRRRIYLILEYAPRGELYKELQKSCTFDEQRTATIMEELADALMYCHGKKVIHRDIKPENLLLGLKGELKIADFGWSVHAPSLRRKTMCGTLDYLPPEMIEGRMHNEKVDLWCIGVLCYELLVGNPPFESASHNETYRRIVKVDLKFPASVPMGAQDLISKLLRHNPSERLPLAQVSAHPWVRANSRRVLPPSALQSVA
Sequence of Cyclin-dependent kinase 4 (P11802 whole entry): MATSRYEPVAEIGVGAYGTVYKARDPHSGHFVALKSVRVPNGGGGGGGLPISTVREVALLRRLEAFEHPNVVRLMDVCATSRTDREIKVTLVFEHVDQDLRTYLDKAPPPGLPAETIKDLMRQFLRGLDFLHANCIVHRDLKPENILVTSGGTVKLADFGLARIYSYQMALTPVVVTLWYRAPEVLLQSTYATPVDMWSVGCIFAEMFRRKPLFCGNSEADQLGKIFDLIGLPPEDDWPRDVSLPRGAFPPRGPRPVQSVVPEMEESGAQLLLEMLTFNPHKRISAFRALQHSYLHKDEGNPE

By pIC50 is commonly meant −log10 of the IC50, conventionally taken in molar units. One may read the pKi as −log10 of the Ki, conventionally taken in molar units. Regarding `Cc1nc(C)c(-c2ccnc(Nc3ccc(N)cc3)n2)s1`, the pIC50 is 6.23 in experiment [1], 5.91 in [10] and 6.03 in experiment [12]. Further, the outcome in experiment [2] was inactive. Besides, the pKi was 6.11 in experiment [3]; 6.47 in experiment [4]; 7.51 in experiment [5]; 6.09 in experiment [6]; 6.77 in experiment [8]; 5.59 in experiment [9]. In addition, the inhibition result in experiment [7] is “Active”. In addition, in experiment [11], the result was Active.
Regarding `CNc1nc(C)c(-c2ccnc(Nc3ccc(N4CCN(C(C)=O)CC4)cc3)n2)s1`, the pIC50 in experiment [1] was 6.66; in [10], 6.21. The pKi in [3] is 6.07; in [4] it was 6.35; in experiment [5], 7.92; in experiment [6], 7.66; in [8] it was 6.53; in experiment [9], 5.97. The pKi in experiment [13] was 8.01.
As to `CNc1ccc(Nc2nccc(-c3sc(C)nc3C)n2)cc1`, the figures for the pIC50 in [1], in [10] and in [12] were 6.83, 6.63 and 5.75, respectively. The pKi is 6.04 in experiment [3]; 6.46 in experiment [4]; 7.74 in experiment [5]; 6.08 in experiment [6]; 6.54 in experiment [8]; 5.37 in [9]. Also, the pKi in [13] is 7.48.
Turning to `CC(=O)N1CCN(c2ccc(Nc3nccc(-c4sc(C)nc4C)n3)cc2)CC1`, the pIC50 in [1] is 6.52; in [10] it was 6.22; in experiment [12] it was 6.44. Besides, the pKi is 5.72 in experiment [3]; 5.94 in experiment [4]; 8.09 in experiment [5]; 6.03 in [6]; 6.36 in experiment [8]; 5.55 in [9]. Further, the pKi in experiment [13] is 7.89.
On to `CNc1nc(C)c(-c2ccnc(Nc3ccc(N4CCOCC4)cc3)n2)s1`, for which the figures for the pIC50 in experiment [1], in [10] and in experiment [12] were 6.84, 6.56 and 5.43, respectively. For the same compound, the result in experiment [2] and in [11] was inactive. In addition, the pKi was 5.41 in experiment [3]; 5.58 in experiment [4]; 7.72 in experiment [5]; 6.03 in experiment [6]; 6.81 in experiment [8]; less than 5.00 in experiment [9]. Also, the pKi in [13] was 8.03. In addition, the inhibition entry in experiment [7] is “Active”.
For the compound `COc1cc(Nc2nccc(-c3sc(C)nc3C)n2)cc(OC)c1OC`, the pIC50 in experiment [1] is 8.00; in experiment [10] it was 7.66; in experiment [12], 6.89. Also, the outcome in experiment [2] and in [11] was inactive. In addition, the pKi was 6.15 in experiment [3]; 7.96 in experiment [4]; 9.40 in experiment [5]; 6.18 in [6]; 6.62 in [8]; 6.61 in [9]. Also, the pKi in [13] was 8.70. Moreover, in experiment [7], the inhibition result was “Active”.
For the compound `CC(=O)N1CCN(c2ccc(Nc3nccc(-c4sc(N)nc4C)n3)cc2)CC1`, the pIC50 in [1] is 6.62; in experiment [10] it was 6.31; in experiment [12] it was 6.23. For the same compound, the pKi is less than 5.00 in experiment [3]; 6.58 in experiment [4]; 8.12 in [5]; 5.90 in [6]; 6.28 in experiment [8]; 5.67 in experiment [9]. In addition, the pKi in [13] was 8.42.
Regarding `CCNc1nc(C)c(-c2ccnc(Nc3ccc(CNC(C)=O)cc3)n2)s1`, the pIC50 in [1] is 7.09; in experiment [10] it was 6.64; in experiment [12], 6.12. In addition, the pKi in [3] is 6.62; in experiment [4], 8.05; in experiment [5], 8.30; in experiment [6], 7.42; in experiment [8], 7.49; in experiment [9] it was 6.77. In addition, the pKi in experiment [13] is 8.40.
As to `CCNc1nc(C)c(-c2ccnc(Nc3ccc(N4CCOCC4)cc3)n2)s1`, the pIC50 in experiment [1] was 7.09; in [10], 6.76; in experiment [12] it was 6.24. Moreover, the outcome in [2] and in experiment [11] was inactive. Further, the pKi in [3] was less than 5.00; in [4] it was 6.25; in [5] it was 7.85; in experiment [6], 6.71; in experiment [8] it was 6.82; in experiment [9], less than 5.00. In experiment [13], the pKi was 8.22. For the same compound, the inhibition entry in experiment [7] is “Active”.
In the case of `Cc1nc(C)c(-c2ccnc(Nc3ccc(N4CCOCC4)cc3)n2)s1`, the pIC50 was 6.48 in experiment [1], 6.06 in experiment [10] and 6.07 in experiment [12]. For the same compound, the outcome in experiment [2] and in experiment [11] was inactive. Besides, the pKi was less than 5.00 in [3]; less than 5.00 in experiment [4]; 8.40 in [5]; 5.66 in experiment [6]; 5.98 in experiment [8]; less than 5.00 in [9]. In addition, the pKi in [13] is 8.05. Besides, the inhibition result in experiment [7] was “Active”.
Turning to `CNc1nc(C)c(-c2ccnc(Nc3cc(OC)c(OC)c(OC)c3)n2)s1`, the results for the pIC50 in experiment [1], in [10] and in experiment [12] were 7.62, 7.21 and 6.55, respectively. For the same compound, the outcome in [2] and in experiment [11] was inactive. The pKi in experiment [3] is 6.44; in experiment [4], 8.22; in [5] it was 9.00; in experiment [6], 6.02; in [8], 6.59; in experiment [9], 6.43. Moreover, the pKi in [13] is 8.52. Moreover, in [7], the inhibition result was “Active”.
On to `Cc1nc(C)c(-c2ccnc(Nc3ccc(N4CCN(S(C)(=O)=O)CC4)cc3)n2)s1`, for which the results for the pIC50 in experiment [1], in experiment [10] and in experiment [12] were 6.53, 6.22 and 5.95, respectively. Besides, the pKi in experiment [3] is less than 5.00; in experiment [4], 5.83; in experiment [5], 8.04; in experiment [6], less than 5.00; in [8], 5.40; in [9], less than 5.00. In addition, the pKi in [13] is 7.74.
As for `CCNc1nc(C)c(-c2ccnc(Nc3cc(OC)c(OC)c(OC)c3)n2)s1`, the values for the pIC50 in experiment [1], in experiment [10] and in [12] were 6.41, 6.00 and 5.73, respectively. For the same compound, the result in experiment [2] and in [11] was inactive. For the same compound, the pKi in [3] was 5.91; in experiment [4], 6.25; in experiment [5] it was 8.52; in experiment [6] it was less than 5.00; in experiment [8], 6.33; in experiment [9] it was 5.86. Also, in experiment [13], the pKi was 8.22. Moreover, the inhibition result in experiment [7] was “Active”.
